Measured values from PMC7589200, “Identification of Putative Non-Substrate-Based XT-I Inhibitors by Natural Product Library Screening” (Biomolecules, 2020).

Target: T1, recombinant human XT-I (Homo sapiens, UniProt Q86Y38)
T1 sequence (Q86Y38 252-959 limits assumed): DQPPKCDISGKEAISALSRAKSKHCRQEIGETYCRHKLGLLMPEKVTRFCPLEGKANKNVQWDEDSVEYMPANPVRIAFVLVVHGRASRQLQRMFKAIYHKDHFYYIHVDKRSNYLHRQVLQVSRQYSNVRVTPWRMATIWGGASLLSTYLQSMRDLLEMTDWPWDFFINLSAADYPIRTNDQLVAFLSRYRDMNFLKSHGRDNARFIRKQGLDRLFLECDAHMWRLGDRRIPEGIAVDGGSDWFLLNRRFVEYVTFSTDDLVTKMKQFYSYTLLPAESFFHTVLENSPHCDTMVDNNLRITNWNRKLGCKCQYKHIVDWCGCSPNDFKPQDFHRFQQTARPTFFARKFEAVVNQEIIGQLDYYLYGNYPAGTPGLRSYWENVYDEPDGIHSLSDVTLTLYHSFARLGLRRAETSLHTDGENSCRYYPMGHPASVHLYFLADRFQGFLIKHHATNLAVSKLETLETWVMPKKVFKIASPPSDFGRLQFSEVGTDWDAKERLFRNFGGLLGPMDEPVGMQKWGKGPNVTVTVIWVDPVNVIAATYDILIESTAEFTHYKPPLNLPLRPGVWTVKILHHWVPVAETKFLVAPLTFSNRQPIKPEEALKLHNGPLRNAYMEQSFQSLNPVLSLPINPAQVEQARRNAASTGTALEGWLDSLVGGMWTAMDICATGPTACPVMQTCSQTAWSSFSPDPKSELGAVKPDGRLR
Assay: NP library inhibitor screening, UPLC/ESI-MS/MS XT-I assay
Assay type: biochemical
Conditions: 50 μM inhibitor, technical duplicates

[1] = Table S1, relative to negative control containing DMSO

Compound	remaining activity at 50 µM [1] [%]	also measured
CO[C@H]1/C=C/O[C@@]2(C)Oc3c(C)c(O)c4c(O)c(c(/C=N/N5CCN(C)CC5)c(O)c4c3C2=O)NC(=O)/C(C)=C\C=C\[C@H](C)[C@H](O)[C@@H](C)[C@@H](O)[C@@H](C)[C@H](OC(C)=O)[C@@H]1C [Compound 41, Rifampin]	77	
C[C@@H]1[C@H](O)[C@@H](C)/C=C/C=C/CC/C=C/C=C/C=C/C=C/[C@H](O[C@H]2O[C@@H](C)[C@H](O)[C@@H](N)[C@H]2O)C[C@@H]2O[C@](O)(C[C@@H](O)[C@H](O)CC[C@@H](O)C[C@@H](O)C[C@@H](O)CC(=O)O[C@H]1C)C[C@H](O)[C@H]2C(=O)O [Compound 44, Nystatin (Fungicidin)]		XT-I Activity [%] [1]: 52%
C[C@H]1O[C@H](O[C@H]2[C@H](O)[C@@H](O)[C@@H](O[C@H]3[C@H](O)[C@@H](O)C(O)O[C@@H]3CO)O[C@@H]2CO)[C@H](O)[C@@H](O)[C@@H]1N[C@H]1C=C(CO)[C@@H](O)[C@H](O)[C@H]1O (some centres unmarked) [Compound 46, Acarbose]	92	
CN(C)c1cc(NC(=O)CNC(C)(C)C)c(O)c2c1C[C@H]1C[C@H]3[C@H](N(C)C)C(O)=C(C(N)=O)C(=O)[C@@]3(O)C(O)=C1C2=O [Compound 48, Tigecycline]	59	
CC[C@H]1OC(=O)[C@H](C)[C@@H](O[C@H]2C[C@@](C)(OC)[C@@H](O)[C@H](C)O2)[C@H](C)[C@@H](O[C@@H]2O[C@H](C)C[C@H](N(C)C)[C@H]2O)[C@](C)(O)C[C@@H](C)CN(C)[C@H](C)[C@@H](O)[C@]1(C)O [Compound 53, Azithromycin]	109	
NC(=O)c1cccnc1 [Compound 54, Nicotinamide (Vitamin B3)]		XT-I Activity [%] [1]: 116%
COc1ccc2[nH]cc(CCNC(C)=O)c2c1 [Compound 56, Melatonin]	99	
O=c1c(-c2ccc(O)cc2)coc2cc(O)cc(O)c12 [Compound 58, Genistein]	94	
C[C@]12CCC(=O)C=C1CC[C@@H]1[C@@H]2[C@@H](O)C[C@@]2(C)[C@H]1CC[C@]2(O)C(=O)CO [Compound 62, Hydrocortisone]	122	
COc1cccc2c1C(=O)c1c(O)c3c(c(O)c1C2=O)C[C@@](O)(C(=O)CO)C[C@@H]3O[C@H]1C[C@H](N)[C@H](O)[C@H](C)O1.Cl [Compound 67, Doxorubicin (Adriamycin) HCl]		XT-I Activity [%] [1]: 113%
Cc1ncc([N+](=O)[O-])n1CCO [Compound 76, Metronidazole]	109	
O=c1[nH]cc(F)c(=O)[nH]1 [Compound 78, Fluorouracil (5-Fluoracil, 5-FU)]		XT-I Activity [%] [1]: 137%
C/C(=C\c1csc(C)n1)[C@@H]1C[C@@H]2O[C@@H]2CCC[C@H](C)[C@H](O)[C@@H](C)C(=O)C(C)(C)[C@@H](O)CC(=O)O1 [Compound 79, Epothilone A]	119	
CCCCCCCCCC(=O)N[C@@H](Cc1c[nH]c2ccccc12)C(=O)N[C@H](CC(N)=O)C(=O)N[C@@H](CC(=O)O)C(=O)N[C@@H]1C(=O)NCC(=O)N[C@@H](CCCN)C(=O)N[C@@H](CC(=O)O)C(=O)N[C@H](C)C(=O)N[C@@H](CC(=O)O)C(=O)NCC(=O)N[C@H](CO)C(=O)N[C@@H]([C@H](C)CC(=O)O)C(=O)N[C@@H](CC(=O)c2ccccc2N)C(=O)O[C@@H]1C [Compound 80, Daptomycin]	86	
N[C@@H](C(=O)N[C@@H]1C(=O)N2C(C(=O)O)=C(Cl)CS[C@H]12)c1ccccc1 [Compound 81, Cefaclor]	71	
CCc1cc(C(N)=S)ccn1 [Compound 85, Ethionamide]	130	
Clc1ccc(C(Cn2ccnc2)OCc2ccsc2Cl)c(Cl)c1 (centres unmarked) [Compound 87, Tioconazole]	136	
Clc1ccc(COC(Cn2ccnc2)c2ccc(Cl)cc2Cl)c(Cl)c1 (centres unmarked) [Compound 88, Miconazole Nitrate]	149	
CC1(C)[C@H](C(=O)O)N2C(=O)C[C@H]2S1(=O)=O [Compound 90, Sulbactam]	138	
COc1cc(NS(=O)(=O)c2ccc(N)cc2)nc(OC)n1 [Compound 91, Sulphadimethoxine]		XT-I Activity [%] [1]: 132%
Cl.N=c1ccn2c(n1)O[C@H]1[C@H](O)[C@@H](CO)O[C@H]12 [Compound 92, Cyclocytidine HCl]		XT-I Activity [%] [1]: 142%
Cl.Nc1ncnc2nc[nH]c12 [Compound 93, Adenine HCl]		XT-I Activity [%] [1]: 146%

The next lines start with results.

remaining activity at 50 µM [1] [%]	Compound	also measured
89	COC(=O)[C@H]1[C@H]2C[C@@H]3c4[nH]c5cc(OC)ccc5c4CCN3C[C@H]2C[C@@H](OC(=O)c2cc(OC)c(OC)c(OC)c2)[C@@H]1OC [Compound 38, Reserpine]	
98	C[C@H](CCC(=O)O)[C@H]1CC[C@H]2[C@@H]3[C@@H](O)C[C@@H]4C[C@H](O)CC[C@]4(C)[C@H]3CC[C@]12C [Compound 39, Ursodiol]	
87	O=C(N[C@H](CO)[C@H](O)c1ccc([N+](=O)[O-])cc1)C(Cl)Cl [Compound 40, Chloramphenicol]	
71	Nc1nc2c(ncn2COCCO)c(=O)[nH]1 [Compound 42, Aciclovir]	
89	C[C@@H]1CN(c2c(F)c(N)c3c(=O)c(C(=O)O)cn(C4CC4)c3c2F)C[C@H](C)N1 [Compound 43, Sparfloxacin]	
75	O=[N+]([O-])c1cn2c(n1)OC[C@@H](OCc1ccc(OC(F)(F)F)cc1)C2 [Compound 45, PA-824]	
98	COc1c(N2CCNC(C)C2)c(F)cc2c(=O)c(C(=O)O)cn(C3CC3)c12 (centres unmarked) [Compound 47, Gatifloxacin]	
72	C=CC1=C(C(=O)O)N2C(=O)[C@@H](NC(=O)/C(=N\O)c3csc(N)n3)[C@H]2SC1 [Compound 49, Cefdinir]	
104	NC(=O)N/N=C/c1ccc([N+](=O)[O-])o1 [Compound 50, Nitrofural]	
118	Nc1ccc(S(N)(=O)=O)cc1 [Compound 51, Sulfanilamide]	
104	CO/N=C(\C(=O)N[C@@H]1C(=O)N2C(C(=O)OCOC(=O)C(C)(C)C)=C(/C=C\c3scnc3C)CS[C@H]12)c1csc(N)n1 [Compound 52, Cefditoren Pivoxil]	
111	C[C@H]1COc2c(N3CCN(C)CC3)c(F)cc3c(=O)c(C(=O)O)cn1c23 [Compound 55, Levofloxacin]	
93	C[C@@H]1CC[C@H]2[C@@H](C)C(=O)O[C@@H]3O[C@@]4(C)CC[C@@H]1[C@]32OO4 [Compound 57, Artemisinin]	
103	CC(=O)NC[C@H]1CN(c2ccc(N3CCOCC3)c(F)c2)C(=O)O1 [Compound 59, Linezolid]	
101	Clc1ccccc1C(c1ccccc1)(c1ccccc1)n1ccnc1 [Compound 60, Clotrimazole]	
103	Nc1ncnc2c1ncn2[C@@H]1O[C@H](CO)[C@@H](O)[C@H]1O [Compound 61, Adenosine]	
108	Nc1ccc(S(=O)(=O)Nc2ncccn2)cc1 [Compound 63, Sulfadiazine]	
121	Oc1c(Cl)cc(Cl)c2cccnc12 [Compound 64, Chloroxine]	
106	CC1=CC(=O)c2ccccc2C1=O [Compound 66, Menadione]	
94	C[C@@H](c1ncncc1F)[C@](O)(Cn1cncn1)c1ccc(F)cc1F [Compound 70, Voriconazole]	
83	CCN1CCN(C(=O)N[C@@H](C(=O)N[C@@H]2C(=O)N3C(C(=O)O)=C(CSc4nnnn4C)CS[C@H]23)c2ccc(O)cc2)C(=O)C1=O [Compound 71, Cefoperazone]	
84	CC1=C(/C=C/C(C)=C/C=C/C(C)=C/C(=O)O)C(C)(C)CCC1 [Compound 72, Tretinoin]	
113	CC(=O)[C@H]1CC[C@H]2[C@@H]3CCC4=CC(=O)CC[C@]4(C)[C@H]3CC[C@]12C [Compound 73, Progesterone]	
113	C[C@H](CCC(=O)O)[C@H]1CC[C@H]2[C@@H]3[C@H](O)C[C@@H]4C[C@H](O)CC[C@]4(C)[C@H]3CC[C@]12C [Compound 75, Chenodeoxycholic Acid]	
107	COc1c2occc2cc2ccc(=O)oc12 [Compound 77, Methoxsalen]	
126	COc1cnc(NS(=O)(=O)c2ccc(N)cc2)nc1 [Compound 82, Sulfameter]	
120	C[C@]12CC[C@@H]3c4ccc(O)cc4CC[C@H]3[C@@H]1CCC2=O [Compound 83, Estrone]	
128	C[C@]12CC[C@@H]3c4ccc(O)cc4CC[C@H]3[C@@H]1CC[C@@H]2O [Compound 84, Estradiol]	
43	COc1cc(/C=C/C(=O)CC(=O)/C=C/c2ccc(O)c(OC)c2)ccc1O [Compound 86, Curcumin]	XT-I Activity [%] (Table 2, relative to control (DMSO = 100%)): 43%
111	Cc1nnc(NS(=O)(=O)c2ccc(N)cc2)s1 [Compound 89, Sulfamethizole]	
